Patent US20150366788A1, “[…] EXTRACTS AND METHODS OF USE” (AVON PRODUCTS, INC, priority 2013, published 2015)

System: dorsal forearm skin of healthy female Caucasian subjects
Experiment: In vivo biopsy (forearm patch, histology endpoints)
Set-up: species or system human
Settings: 0.05% active (positive control), semi-occlusion patch, 3 weeks
Description: Healthy female Caucasian subjects aged 30-65, with skin type II or III and mild to moderate photo damage, were treated on the dorsal forearm for 3 weeks (3 consecutive rounds of 5×24 hour) under semi-occlusion patches. Test articles including active ingredients, vehicle controls, and retinol were applied in a randomized allocation on 6 sites on each forearm. The application dose was 2 mg/cm^2. After 3 week treatment, a 2 mm punch biopsy was obtained from each treatment site and fixed in 10% buffered formalin. Tissue samples then embedded in paraffin, sectioned (5 μm thickness), and stained for skin markers after re-hydration. […] Retinol at a active concentration of 0.05% was used a positive control. Retinol use at a 0.05% active concentration in the semi-occlusion patch vehicle formulation yielded a visual score of approximately 0.56 out of a 4 point scale in HE staining (measuring hematoxylin and eosin staining, an indication of viable epidermal thickness and health) with 63.6% of the subjects showing an improvement; a visual score of 0.6 out of a 4 point scale in M-TC staining (Masson's trichrome staining, assessing total mature fiber-forming collagen in the dermis—mainly Collagen I, […] and Collagen V) with 51.6% of the subjects showing an improvement; a visual score of 0.52 out of a 4 point scale for pro-Col (measuring new synthesis of Collagen I by skin fibroblasts in the dermis) with 51.6% of the subjects showing an improvement; and a visual score of 0.57 out of a 4 point scale for HA (measuring level of hyaluronic acid in both dermis and epidermis) with 50% of the subjects showing an improvement.

Question: Which results are given for `CC1=C(/C=C/C(C)=C/C=C/C(C)=C/CO)C(C)(C)CCC1` [Retinol]?
Answer: subjects showing an improvement, HA: 50%; subjects showing an improvement, HE staining: 63.6%; subjects showing an improvement, M-TC staining: 51.6%; subjects showing an improvement, pro-Col: 51.6%; visual score HA (hyaluronic acid in dermis and epidermis) (out of a 4 point scale): 0.57; visual score HE staining (viable epidermal thickness and health) (out of a 4 point scale): approximately 0.56; visual score M-TC staining (total mature fiber-forming collagen in dermis) (out of a 4 point scale): 0.6; visual score pro-Col (new synthesis of Collagen I) (out of a 4 point scale): 0.52
